Laboratory results as given in patent publication US9296759B2, “Amino-oxazine and amino-dihydrothiazine compounds as beta-secretase modulators and methods of use” (AMGEN INC., priority 2011, dated 2016).
pIC50: −log10 of the molar value. Like-named read-outs stand apart in the source and are kept apart here.

Columns and labels:
Abeta 40 = experiment: In vivo inhibition of beta-secretase: Abeta 40 reduction in CSF and brain of the rat; conditions: 10 mpk, after 4 hrs
Source text: In Vivo Inhibition of Beta-Secretase
Several animal models, including mouse, rat, dog, and monkey, may be used to screen for inhibition of beta-secretase activity in vivo following administration of a test compound sample. Animals used in this invention can be wild type, transgenic, or gene knockout animals. For example, the Tg2576 mouse model, prepared and conducted as described in Hsiao et al., 1996, Science 274, 99-102, and other non-transgenic or gene knockout animals are useful to analyze in vivo inhibition of Amyloid beta peptide (Abeta) production in the presence of inhibitory test compounds. Generally, 2 to 18 month old Tg2576 mice, gene knockout mice or non-transgenic animals are administered test compounds formulated in vehicles, such as cyclodextran, phosphate buffers, hydroxypropyl methylcellulose or other suitable vehicles. One to twenty-four hours following the administration of compound, animals are sacrificed, and brains as well as cerebrospinal fluid (CSF) and plasma are removed for analysis of A-beta levels and drug or test compound concentrations (Dovey et al., 2001, Journal of Neurochemistry, 76, 173-181) Beginning at time 0, animals are administered by oral gavage, or other means of delivery such as intravenous injection, an inhibitory test compound of up to 100 mg/kg in a standard, conventional formulation, such as 2% hydroxypropyl methylcellulose, 1% Tween80. A separate group of animals receive 2% hydroxypropyl methylcellulose, 1% Tween80 alone, containing no test compound, and serve as a vehicle-control group. At the end of the test period, animals are sacrificed and brain tissues, plasma or cerebrospinal fluid are collected. Brains are either homogenized in 10 volumes (w/v) of 0.2% diethylamine (DEA) in 50 mM NaCl (Best et al., 2005, Journal of Pharmacology and Experimental Therapeutics, 313, 902-908), or in 10 volumes of 0.5% TritonX-100 in Tris-buffered saline (pH at about 7.6). Homogenates are centrifuged at 355,000 g, 4° C. for 30 minutes. CSF or brain supernatants are then analyzed for the presence of A-beta peptide by specific sandwich ELISA assays based on ECL (Electrochemiluminescence) technology. For example, rat Abeta40 is measured using biotinylated-4G8 (Signet) as a capture antibody and Fab40 (an in-house antibody specific to the C-terminal of Abeta40) as a detection antibody. For example, 4 hours after administration of 30 mg/kg oral dose of the test compound in 2% hydroxypropyl methylcellulose, 1% Tween80 (pH2.2) to 200 g male Sprague Dawley rats, amyloid beta peptide levels are measured for reduction by X % and Y % in cerebrospinal fluid and brain, respectively, when compared to the levels measured in the vehicle-treated rats.
• Oral: 2% HPMC, 1% Tween80, pH 2.2 • IV: 5% EtOH, 45% Propylene glycol in 5% Dextrose
The compounds of the invention may be shown to reduce the formation and/or deposition of amyloid beta peptide in the cerebrospinal fluid (CSF) as well as in the brain of a mouse or rat at either 3 mpk, 10 mpk or 30 mpk (mpk=mg compound per kg weight of the animal) dosing concentrations after 4 hrs.

[1] = molecular target: BACE 1 (beta secretase enzyme) (Homo sapiens (Human), UniProt P56817); experiment: In vitro enzymatic BACE FRET assay; assay type: biochemical; conditions: average IC50
Outline: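 The enzyme was tested in 0.05 M acetate, pH 4.2, with 10% DMSO final and 100 uM genapol. The reaction was started with 50 nM quenched FRET peptide substrate, incubated one hour and stopped with Tris to neutral pH. Cleavage was read as fluorescence ([…]).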

[2] = tested on: Aβ40 in conditioned medium of cells stably expressing Amyloid Precursor Protein (APP); experiment: In vitro BACE cell-based assay (HEK cell assay, Aβ40 sandwich ELISA); conditions: Homo sapiens, HEK293; average IC50, Aβ40, 24 h incubation
Outline: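 Secreted Aβ40 was quantified by sandwich ELISA (pAb40 capture, biotinylated 6E10 detection, Europium time-resolved fluorescence). IC50 derived from percent inhibition versus concentration.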

Cathepsin D = Cathepsin D (Homo sapiens (Human), UniProt P07339); experiment: In vitro enzymatic Cat D (Cathepsin D) FRET assay; assay type: biochemical; conditions: average IC50
Outline: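 CHO-expressed recombinant enzyme in 0.05 M citrate pH 3.5, 5 mM CHAPS, 10% DMSO final; reaction started with 20 nM quenched-peptide FRET substrate (cleavage site spanned by fluorophore/quencher), 1 h incubation.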

[3] = Abeta 40, rat CSF, read-out: % reduction of rat CSF levels at 10 pmk
[4] = Abeta 40, rat brain, read-out: % reduction of rat brain levels at 10 mpk

BACE 1 (beta secretase enzyme), sequence (P56817 46-501): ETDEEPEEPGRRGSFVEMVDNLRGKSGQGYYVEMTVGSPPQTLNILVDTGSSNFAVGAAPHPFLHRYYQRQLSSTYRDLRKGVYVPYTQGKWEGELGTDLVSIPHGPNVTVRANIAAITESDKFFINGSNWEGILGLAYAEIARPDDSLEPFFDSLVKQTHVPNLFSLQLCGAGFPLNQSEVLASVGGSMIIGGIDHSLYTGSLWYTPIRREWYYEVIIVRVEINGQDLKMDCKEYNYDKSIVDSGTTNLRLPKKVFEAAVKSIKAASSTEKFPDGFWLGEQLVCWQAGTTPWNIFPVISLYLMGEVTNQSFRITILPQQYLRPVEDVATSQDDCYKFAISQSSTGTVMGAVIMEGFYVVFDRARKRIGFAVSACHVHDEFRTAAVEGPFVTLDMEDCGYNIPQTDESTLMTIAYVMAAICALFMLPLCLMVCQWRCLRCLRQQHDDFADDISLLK
Cathepsin D, sequence (P07339 65-412, species assumed): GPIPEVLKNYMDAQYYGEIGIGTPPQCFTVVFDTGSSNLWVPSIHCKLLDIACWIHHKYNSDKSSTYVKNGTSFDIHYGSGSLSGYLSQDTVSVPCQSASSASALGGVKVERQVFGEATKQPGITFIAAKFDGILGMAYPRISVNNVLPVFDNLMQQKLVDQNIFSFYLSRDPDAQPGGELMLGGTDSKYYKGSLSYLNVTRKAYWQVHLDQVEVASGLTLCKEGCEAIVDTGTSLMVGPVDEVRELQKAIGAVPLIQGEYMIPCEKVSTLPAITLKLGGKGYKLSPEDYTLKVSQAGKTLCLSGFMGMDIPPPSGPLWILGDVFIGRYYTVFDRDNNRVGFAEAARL

| pIC50 [1] | pIC50 [2] | pIC50 (Cathepsin D) | SMILES | inhibition in vivo at 10 mg/kg (Abeta 40; [3]) | inhibition in vivo at 10 mg/kg (Abeta 40; [4]) |
| --- | --- | --- | --- | --- | --- |
| 8.62 | 8.47 | – | NC1=N[C@@]2(CCO1)c1cc(NC(=O)c3ccc(Cl)cn3)ccc1Oc1c2cc(C2CC2)nc1F [Example 40, N-((5S)-2′-amino-3-cyclopropyl-1-fluoro-5′,6′-dihydrospiro[chromeno[2,3-c]pyridine-5,4′-[1,3]oxazin]-7-yl)-5-chloro-2-pyridinecarboxamide] | 75% | 58% |
| 8.19 | 8.25 | – | COc1cnc(C(=O)Nc2ccc3c(c2)[C@@]2(CCOC(N)=N2)c2cc(-c4ccnc(F)c4)cc(F)c2O3)cn1 [Example 95, N-((4S)-2-amino-5′-fluoro-7′-(2-fluoro-4-pyridinyl)-5,6-dihydrospiro[1,3-oxazine-4,9′-xanthen]-2′-yl)-5-methoxy-2-pyrazinecarboxamide] | 54% | 21% |
| 8.92 | 8.96 | – | NC1=N[C@@]2(CCO1)c1cc(NC(=O)c3ccc(F)cn3)ccc1Oc1c2cc(-c2ccnc(F)c2)nc1F [Example 97, N-((5S)-2′-amino-1-fluoro-3-(2-fluoro-4-pyridinyl)-5′,6′-dihydrospiro[chromeno[2,3-c]pyridine-5,4′-[1,3]oxazin]-7-yl)-5-fluoro-2-pyridinecarboxamide] | 63% | 44% |
| – | 8.80 | 3.97 | COc1cnc(C(=O)Nc2ccc3c(c2)[C@@]2(CCOC(N)=N2)c2cc(C4=CCCOC4)cc(F)c2O3)cn1 [Example 106, N-((4S)-2-amino-7′-(5,6-dihydro-2H-pyran-3-yl)-5′-fluoro-5,6-dihydrospiro[1,3-oxazine-4,9′-xanthen]-2′-yl)-5-methoxy-2-pyrazinecarboxamide] | 43% | 16% |
| 8.03 | 8.96 | – | COc1cnc(C(=O)Nc2ccc3c(c2)[C@@]2(CCOC(N)=N2)c2cc(C4=CCCOC4)ncc2O3)cn1 [Example 58, N-((5S)-2′-amino-3-(5,6-dihydro-2H-pyran-3-yl)-5′,6′-dihydrospiro[chromeno[2,3-c]pyridine-5,4′-[1,3]oxazin]-7-yl)-5-methoxy-2-pyrazinecarboxamide] | 55% | 36% |
| – | 9.22 | 3.47 | NC1=N[C@@]2(CCO1)c1cc(NC(=O)c3ccc(Cl)cn3)ccc1Oc1ncc(C3=CCOCC3)cc12 [Example 45, N-((5S)-2′-amino-3-(3,6-dihydro-2H-pyran-4-yl)-5′,6′-dihydrospiro[chromeno[2,3-b]pyridine-5,4′-[1,3]oxazin]-7-yl)-5-chloro-2-pyridinecarboxamide] | 27% | 14% |
| 8.21 | 6.78 | < 3.40 | COc1cnc(C(=O)Nc2ccc3c(c2)[C@@]2(CCSC(N)=N2)c2cc(Cl)nc(F)c2O3)cn1 [Example 56, N-((5S)-2′-amino-3-chloro-1-fluoro-5′,6′-dihydrospiro[chromeno[2,3-c]pyridine-5,4′-[1,3]thiazin]-7-yl)-5-methoxy-2-pyrazinecarboxamide] | – | – |
| 8.54 | 9.10 | 3.88 | Cc1cc(Cl)cnc1C(=O)Nc1ccc2c(c1)[C@@]1(CCSC(N)=N1)c1cc(C3=CCOCC3)nc(F)c1O2 [Example 122, N-((5S)-2′-amino-3-(3,6-dihydro-2H-pyran-4-yl)-1-fluoro-5′,6′-dihydrospiro[chromeno[2,3-c]pyridine-5,4′-[1,3]thiazin]-7-yl)-5-chloro-3-methyl-2-pyridinecarboxamide] | – | – |
| 9.22 | 10.09 | 3.88 | N#Cc1ccc(C(=O)Nc2ccc3c(c2)[C@@]2(CCOC(N)=N2)c2cc(-c4cncc(F)c4)nc(F)c2O3)nc1 [Example 69, N-((5S)-2′-amino-1-fluoro-3-(5-fluoro-3-pyridinyl)-5′,6′-dihydrospiro[chromeno[2,3-c]pyridine-5,4′-[1,3]oxazin]-7-yl)-5-cyano-2-pyridinecarboxamide] | – | – |
| 8.77 | 8.96 | 3.40 | COc1cnc(C(=O)Nc2ccc3c(c2)[C@@]2(CCSC(N)=N2)c2cc(C4=CCOCC4)ncc2O3)cn1 [Example 103, N-((5S)-2′-amino-3-(3,6-dihydro-2H-pyran-4-yl)-5′,6′-dihydrospiro[chromeno[2,3-c]pyridine-5,4′-[1,3]thiazin]-7-yl)-5-methoxy-2-pyrazinecarboxamide] | – | – |
| 8.11 | 8.06 | 3.49 | COc1ccc(C(=O)Nc2ccc3c(c2)[C@@]2(CCSC(N)=N2)c2cc(N4CCOCC4)cc(F)c2O3)nc1 [Example 107, N-((4S)-2-amino-5′-fluoro-7′-(4-morpholinyl)-5,6-dihydrospiro[1,3-thiazine-4,9′-xanthen]-2′-yl)-5-methoxy-2-pyridinecarboxamide] | – | – |
| 8.85 | 9.30 | 4.05 | Cc1cc(Br)cnc1C(=O)Nc1ccc2c(c1)[C@@]1(CCSC(N)=N1)c1cc(C3=CCOCC3)nc(F)c1O2 [Example 120, N-((5S)-2′-amino-3-(3,6-dihydro-2H-pyran-4-yl)-1-fluoro-5′,6′-dihydrospiro[chromeno[2,3-c]pyridine-5,4′-[1,3]thiazin]-7-yl)-5-bromo-3-methyl-2-pyridinecarboxamide] | – | – |
| 8.70 | 9.30 | 3.88 | N#Cc1ccc(C(=O)Nc2ccc3c(c2)[C@@]2(CCOC(N)=N2)c2cc(C4=CCCOC4)nc(F)c2O3)nc1 [Example 52, N-((5S)-2′-amino-3-(5,6-dihydro-2H-pyran-3-yl)-1-fluoro-5′,6′-dihydrospiro[chromeno[2,3-c]pyridine-5,4′-[1,3]oxazin]-7-yl)-5-cyano-2-pyridinecarboxamide] | – | – |
| – | 9.22 | 3.88 | NC1=N[C@@]2(CCS1)c1cc(NC(=O)c3ccc(Cl)cn3)ccc1Oc1c2cc(C2=CCOCC2)nc1F [Example 117, N-((5S)-2′-amino-3-(3,6-dihydro-2H-pyran-4-yl)-1-fluoro-5′,6′-dihydrospiro[chromeno[2,3-c]pyridine-5,4′-[1,3]thiazin]-7-yl)-5-chloro-2-pyridinecarboxamide] | 80% | 70% |
| 8.54 | 9.30 | 3.40 | COc1cnc(C(=O)Nc2ccc3c(c2)[C@@]2(CCOC(N)=N2)c2cc(-c4ccnc(F)c4)ncc2O3)cn1 [Example 93, N-((5S)-2′-amino-3-(2-fluoro-4-pyridinyl)-5′,6′-dihydrospiro[chromeno[2,3-c]pyridine-5,4′-[1,3]oxazin]-7-yl)-5-methoxy-2-pyrazinecarboxamide] | – | – |
| 7.79 | 6.74 | 3.49 | NC1=N[C@@]2(CCO1)c1cc(NC(=O)c3cnc(Cl)cn3)ccc1Oc1c2cc(Cl)nc1F [Example 49, N-((5S)-2′-amino-3-chloro-1-fluoro-5′,6′-dihydrospiro[chromeno[2,3-c]pyridine-5,4′-[1,3]oxazin]-7-yl)-5-chloro-2-pyrazinecarboxamide] | – | – |
